Assay results: ChEMBL document CHEMBL1201862, “PubChem BioAssay data set” (2004)
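Briefly, cells in 96-well plates were exposed to five compound concentrations for 48 h, and endpoints were estimated by linear interpolation. Here, GI50 denotes the concentration required for 50% inhibition of growth.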 The source made the active and inactive calls. Rule as the data show it: active = GI50 up to about 1.1 µM and inactive = higher.

What was measured:
Test in all cases: inhibition of tumour cell growth, NCI panel, 48 h
HOP-18 = test system: HOP-18
SNB-78 = test system: SNB-78
DLD-1 = test system: DLD-1
XF498 = test system: XF498
KM-20L2 = test system: KM-20L2
DMS-273 = test system: DMS-273
DMS-114 = test system: DMS-114
RXF 631 = test system: RXF 631
LXFL 529 = test system: LXFL 529

| Compound | GI50 (HOP-18) | GI50 (SNB-78) | GI50 (DLD-1) | GI50 (XF498) | GI50 (KM-20L2) | GI50 (DMS-273) | GI50 (DMS-114) | GI50 (RXF 631) | GI50 (LXFL 529) |
| --- | --- | --- | --- | --- | --- | --- | --- | --- | --- |
| C[C@@H](CN1CC(=O)NC(=O)C1)N1CC(=O)NC(=O)C1 [DEXRAZOXANE] | 422 µM (inactive) | 435 µM (inactive) | 424 µM (inactive) | 102 µM (inactive) | 123 µM (inactive) | 218 µM (inactive) | 70.5 µM (inactive) | – | – |
| O=C1C2C(C(=O)N1c1ccccc1)C1(c3ccccc3)OC2(c2ccccc2)c2ccccc21 (configuration not stated) | > 100 µM (inactive) | – | > 100 µM (inactive) | – | > 100 µM (inactive) | > 100 µM (inactive) | > 100 µM (inactive) | > 100 µM (inactive) | > 100 µM (inactive) |
| CCC(=O)c1c(NOC2OCC(OC(C)=O)C(OC(C)=O)C2OC(C)=O)nc(OC)n(C)c1=O (configuration not stated) | < 0.01 µM (active) | > 100 µM (inactive) | > 100 µM (inactive) | > 100 µM (inactive) | > 100 µM (inactive) | > 100 µM (inactive) | > 100 µM (inactive) | – | > 100 µM (inactive) |
| COC(=O)C1CC(=O)O[C@H]1c1ccc(OC)c(OC)c1 (some centres not stated) | > 100 µM (inactive) | > 100 µM (inactive) | > 100 µM (inactive) | > 100 µM (inactive) | > 100 µM (inactive) | > 100 µM (inactive) | > 100 µM (inactive) | > 100 µM (inactive) | > 100 µM (inactive) |
| O=C(O)C[C@@H](Cl)[C@H](NC(=O)OCc1ccccc1)C(=O)O | > 100 µM (inactive) | > 100 µM (inactive) | > 100 µM (inactive) | > 100 µM (inactive) | > 100 µM (inactive) | > 100 µM (inactive) | > 100 µM (inactive) | – | > 100 µM (inactive) |
| CN(C)C(=S)OC(Cn1cncn1)c1ccc(Cl)cc1Cl (configuration not stated) | > 100 µM (inactive) | – | > 100 µM (inactive) | – | > 100 µM (inactive) | > 100 µM (inactive) | > 100 µM (inactive) | > 100 µM (inactive) | > 100 µM (inactive) |
| O=C(COc1ccccc1)NS(=O)(=O)c1ccccc1 | > 100 µM (inactive) | > 100 µM (inactive) | > 100 µM (inactive) | – | > 100 µM (inactive) | – | > 100 µM (inactive) | > 100 µM (inactive) | > 100 µM (inactive) |
| CCOC(=O)C12CCCC1(O)N(NC(=O)c1cccc(Cl)c1)C(C)=C2C(=O)OC (configuration not stated) | – | – | > 100 µM (inactive) | > 100 µM (inactive) | > 100 µM (inactive) | 56.2 µM (inactive) | > 100 µM (inactive) | 55.7 µM (inactive) | > 100 µM (inactive) |
| Cc1ccc(S(=O)(=O)N/N=C/c2oc(-c3ccccc3Cl)c(-c3ccccc3Cl)c2[N+](=O)[O-])cc1 | – | – | 17.1 µM (inactive) | – | 15.4 µM (inactive) | – | 17.3 µM (inactive) | 19.3 µM (inactive) | – |
| O=C1CSc2cc([N+](=O)[O-])ccc2N1 | > 100 µM (inactive) | > 100 µM (inactive) | > 100 µM (inactive) | > 100 µM (inactive) | > 100 µM (inactive) | > 100 µM (inactive) | > 100 µM (inactive) | > 100 µM (inactive) | > 100 µM (inactive) |
| CC(=O)NNc1nc(C)c(C(/C=C/c2ccc(Cl)cc2)=N\N=C(N)N)s1 | – | > 100 µM (inactive) | > 100 µM (inactive) | > 100 µM (inactive) | > 100 µM (inactive) | > 100 µM (inactive) | – | > 100 µM (inactive) | > 100 µM (inactive) |
| CC1CC(C)CC(C)C(O)/C(C#N)=C/C=C/CC(C2CCCC2C(=O)O)OC(=O)CC(O)C(C)C1 (configuration not stated) | 0.0189 µM (active) | 0.0223 µM (active) | < 0.0122 µM (active) | < 0.0164 µM (active) | 0.0362 µM (active) | 0.0164 µM (active) | < 0.01 µM (active) | 0.0317 µM (active) | < 0.01 µM (active) |
| CC#CC(=O)Nc1ccccc1CC(c1c[nH]c2ccccc12)c1c[nH]c2ccccc12 | – | 11.6 µM (inactive) | 16.6 µM (inactive) | – | – | 16.2 µM (inactive) | 14.4 µM (inactive) | – | 15.1 µM (inactive) |
| C[C@@H](NS(=O)(=O)c1ccc(NC(=O)c2ccccc2)cc1)C(=O)O | > 100 µM (inactive) | – | > 100 µM (inactive) | > 100 µM (inactive) | > 100 µM (inactive) | > 100 µM (inactive) | – | – | > 100 µM (inactive) |
| Clc1ccc(CCn2cncn2)c(Cl)c1 | 44.6 µM (inactive) | > 100 µM (inactive) | > 100 µM (inactive) | – | > 100 µM (inactive) | > 100 µM (inactive) | > 100 µM (inactive) | – | > 100 µM (inactive) |
| O=S(=O)(/C=C/c1ccc(Cl)cc1Cl)Cc1ccccc1CS(=O)(=O)/C=C/c1ccc(Cl)cc1Cl | – | > 100 µM (inactive) | 29 µM (inactive) | 32.9 µM (inactive) | > 100 µM (inactive) | 10.2 µM (inactive) | 31.6 µM (inactive) | – | 43.1 µM (inactive) |
| COC(=O)C12OCC34C(CC5C(C)C6=CC(=O)OC6=CC5(C)C3C(O)C1O)OC(=O)C(O)C24 (configuration not stated) | 0.676 µM (active) | 0.474 µM (active) | – | – | 0.957 µM (active) | 0.178 µM (active) | 0.859 µM (active) | – | 0.101 µM (active) |
| Cc1c(C(=O)CC(=O)C(=O)Nc2cc(Cl)ccc2Cl)[n+]([O-])c2ccccc2[n+]1[O-] | 34.1 µM (inactive) | 50.1 µM (inactive) | – | 51.3 µM (inactive) | 36.1 µM (inactive) | 26.1 µM (inactive) | 25.9 µM (inactive) | – | 45.6 µM (inactive) |
| N#CC(C(=O)CCC(=O)Nc1ccc(Cl)cc1)c1ccc(Cl)cc1 (configuration not stated) | 97.3 µM (inactive) | > 100 µM (inactive) | 71.3 µM (inactive) | > 100 µM (inactive) | 11.5 µM (inactive) | > 100 µM (inactive) | > 100 µM (inactive) | > 100 µM (inactive) | 9.33 µM (inactive) |
| COC(=O)CC(C(C(C)=O)C(=O)OCc1ccccc1)N1C(=O)OCC1c1ccccc1 (configuration not stated) | – | – | 47.2 µM (inactive) | 53.5 µM (inactive) | > 100 µM (inactive) | > 100 µM (inactive) | 52 µM (inactive) | > 100 µM (inactive) | 83.2 µM (inactive) |
| CCCCCCC1=NOC(C(c2cc[nH]c2)N(C)[C@H](C(=O)OC)C(C)C)C1 (some centres not stated) | 58.1 µM (inactive) | 21.3 µM (inactive) | 34.1 µM (inactive) | 35.3 µM (inactive) | 39 µM (inactive) | 25.8 µM (inactive) | 33.3 µM (inactive) | 36.6 µM (inactive) | 46.8 µM (inactive) |
| Nc1c(S(=O)(=O)c2ccccc2)c2nc3ccccc3nc2n2c1nc1ccccc12 | – | 26.4 µM (inactive) | > 86.1 µM (inactive) | 11.8 µM (inactive) | > 100 µM (inactive) | 7.67 µM (inactive) | > 69.3 µM (inactive) | 16.9 µM (inactive) | > 52 µM (inactive) |
| COC(=O)C1CCC2(C)[C@H](CCC3O[C@]32C)[C@@]1(C)CC(=O)c1ccoc1 (some centres not stated) | – | > 100 µM (inactive) | > 100 µM (inactive) | 20.4 µM (inactive) | > 100 µM (inactive) | > 100 µM (inactive) | 46.1 µM (inactive) | – | 40.6 µM (inactive) |
